IC50 data for 20 compounds are collected here from US11286268B1, “EIF4E-inhibiting compounds and methods” (EFFECTOR THERAPEUTICS, INC., priority 2019, dated 2022).

For the test, the target named is recombinant eIF4E (Homo sapiens (Human), UniProt P06730). As to the kind of experiment: Fluorescence polarization competition assay for eIF4E binding potency. How it is done:
Compounds were screened for eIF4E binding potency using a fluorescence polarization competition assay. All binding reactions were performed in fluorescence polarization buffer (FPB) containing 20 mM Tris pH 7.5, 100 mM NaCl, 1 mM DTT, and 0.02% Tween-20. Final binding reactions contained 75 nM recombinant eIF4E (Beryllium, custom order), 20 nM EDA-m^7GDP-ATTO-550 (Jena Bioscience, NU-827-550) and varying concentrations of the inhibitory compound of interest. Final DMSO concentration in each reaction was 1%.
eIF4E protein was pre-incubated with EDA-m^7GDP-ATTO-550 in FPB at 2× concentrations for 5 minutes prior to the addition of compounds. Compounds (100×) were prepared using 3-fold serial dilutions in 100% DMSO, and subsequently diluted 1:50 in FPB to produce 2× stocks. 50 μl of 2× eIF4E/EDA-m^7GDP-ATTO-550 were transferred to the wells of a 96-well half-area black flat bottom polystyrene plate. 50 μl of 2× test compound were added, and binding reactions were allowed to equilibrate for 30 minutes at room temperature while protected from light. The fluorescent polarization signal was detected using a Victor 2 multi-label counter (Perkin Elmer) and the concentration necessary to achieve inhibition of eIF4E/EDA-m^7GDP-ATTO-550 binding by 50% (IC50) was calculated using data from an 8-point compound dilution series.
In Table 4A, IC50 values of less than 0.05 μM are labelled as “+++”, from 1 to 0.05 μM are labelled as “++”, and greater than 1 μM are labelled as “+”. ND=not determined.

Setting [1] is: fluorescence polarization competition, 75 nM recombinant eIF4E, 20 nM EDA-m7GDP-ATTO-550, IC50 class, read-out: elF4E FP.
Where [2] appears, read: inhibition of eIF4E/EDA-m7GDP-ATTO-550 binding by 50%, Table 4B calculated values, read-out: IC50.
Setting [3] is: inhibition of eIF4E/EDA-m7GDP-ATTO-550 binding, calculated IC50 values, Table 4B, read-out: IC50.

Where two headings read alike, the source gives them in different places.

recombinant eIF4E, sequence (P06730 whole entry): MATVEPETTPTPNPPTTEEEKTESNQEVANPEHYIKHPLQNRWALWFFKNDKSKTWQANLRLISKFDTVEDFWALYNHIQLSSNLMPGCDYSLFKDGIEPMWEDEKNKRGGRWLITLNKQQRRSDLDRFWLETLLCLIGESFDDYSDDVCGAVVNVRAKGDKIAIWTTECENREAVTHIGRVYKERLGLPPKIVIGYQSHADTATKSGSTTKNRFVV

For the compound `Cc1cc(-c2cc(Cl)ccc2OCCn2c(C)nc3cc(N(C)C)c(-c4ccccc4)c(C#N)c3c2=O)c2scc(C(=O)O)c2n1` [compound 1040], the IC50 runs as follows: under setting [1], less than 50 nM; under setting [2], 30 nM. `Cc1nc2cc(C(F)(F)F)c(N3CCN(CCC(F)(F)F)CC3)c(C#N)c2c(=O)n1CCOc1ccc(Cl)cc1-c1ccnc2c(C(=O)O)csc12` [compound 1293]: under setting [3], the IC50 is 35.1 nM. Take `Cc1cc(-c2cc(Cl)ccc2OCCn2c(C)nc3cc(C(F)(F)F)c(-c4cc(C)nn4C)c(C#N)c3c2=O)c2scc(C(=O)O)c2n1` [compound 1028]: the IC50 was less than 50 nM under setting [1] and 6.14 nM under setting [2].

As for `Cc1nc2cnc(C3(C)CCN(C)CC3)c(C#N)c2c(=O)n1CCOc1ccc(Cl)cc1-c1ccnc2c(C(=O)O)csc12` [compound 1415], the IC50 under setting [3] is 16.8 nM. As for `Cc1nc2cc(Cl)c(CN(C)C)c(C#N)c2c(=O)n1CCOc1ccc(Cl)cc1-c1ccnc2c(C(=O)O)csc12` [compound 509], the IC50 was 50 to 1000 nM under setting [1] and 125 nM under setting [2]. `Cc1nc2cc(C(F)(F)F)cc(S)c2c(=O)n1CCOc1ccc(Cl)cc1-c1ccnc2c(C(=O)O)csc12` [compound 221]: the IC50 reads like this: under setting [1], 50 to 1000 nM; under setting [2], 113 nM. As for `Cc1nc2cnc(C#N)cc2c(=O)n1CCOc1ccc(Cl)cc1-c1cccc(C(=O)O)c1` [compound 1995], the IC50 under setting [3] is 59.3 nM.

`CCN(c1ncc2nc(C)n(CCOc3ccc(Cl)cc3-c3ccnc4c(C(=O)O)csc34)c(=O)c2c1C#N)C1CCN(CC(F)F)CC1` [compound 1433]: the IC50 under setting [3] was 27.4 nM. In the case of `CCN(c1ncc2nc(C)n(CC#Cc3ccc(Cl)cc3-c3ccnc4c(C(=O)NS(=O)(=O)CC(C)(C)C#N)csc34)c(=O)c2c1C#N)C1CCN(C2COC2)CC1` [compound 1737], the IC50 under setting [3] was 14.3 nM.

Turning to `Cc1nc2cnc(N3CCN(C(C)(C)C(F)(F)F)CC3)c(C#N)c2c(=O)n1CCOc1ccc(Cl)cc1-c1ccnc2c(C(=O)O)csc12` [compound 1316], under setting [3], the IC50 was 32.8 nM. For `O=C(O)c1cccc(-c2cc(Cl)ccc2OCCn2c(C(F)F)nc3cncc(Br)c3c2=O)c1` [compound 2010], the IC50 under setting [3] was 1190 nM.

For the compound `CCN(CC)Cc1c(C(F)(F)F)cc2nc(C)n(CCOc3ccc(Cl)cc3-c3ccnc4c(C(=O)O)csc34)c(=O)c2c1C#N` [compound 527], the IC50 reads like this: under setting [1], less than 50 nM; under setting [2], 24.8 nM. In the case of `Cc1nc2cnc(N3CCN(C4(C(F)F)CC4)CC3)c(C#N)c2c(=O)n1CC#Cc1ccc(Cl)cc1-c1ccnc2c(C(=O)O)csc12` [compound 1366], the IC50 under setting [3] is 14.3 nM. As for `COc1ncc2nc(C)n(CCOc3ccc(Cl)cc3-c3cc(C)nc4c(C(=O)O)csc34)c(=O)c2c1C#N` [compound 897], the IC50 under setting [1] was less than 50 nM and the IC50 under setting [2] is 1.4 nM. On to `Cc1cc(-c2cc(Cl)ccc2OCCn2c(C)nc3cc4c(c(C#N)c3c2=O)C(N(C)C)CC4)c2scc(C(=O)O)c2n1` (centres unmarked) [compound 612], for which the IC50 was less than 50 nM under setting [1] and 43.8 nM under setting [2]. `Cc1cc(-c2cc(Cl)ccc2OCCn2c(C)nc3cc(CN(C)C(C)(C)C)c(OC(F)F)c(C#N)c3c2=O)c2scc(C(=O)O)c2n1` [compound 618]: the IC50 reads like this: under setting [1], less than 50 nM; under setting [2], 2.98 nM. On to `Cc1ccc(-c2cc(Cl)ccc2OCCn2c(C)nc3cnc(-c4ccncc4)c(C#N)c3c2=O)c2scc(C(=O)O)c12` [compound 762], for which the IC50 was less than 50 nM under setting [1] and 33.7 nM under setting [2]. `Cc1nc2ccc(OC(F)(F)F)c(C#N)c2c(=O)n1CCOc1ccc(Cl)cc1-c1ccnc2c(C(=O)O)csc12` [compound 406]: the IC50 was less than 50 nM under setting [1] and 11.4 nM under setting [2].

Consider `COc1cc(F)c(C(=O)O)cc1-c1cc(Cl)ccc1OCCn1cnc2cnc(C#N)cc2c1=O` [compound 97], for which the IC50 runs as follows: under setting [1], more than 1000 nM; under setting [2], more than 3000 nM. For `CCc1cc(-c2cc(F)c(F)cc2OCCn2c(C)nc3cc(C(F)(F)F)c(N4CCN(C)CC4)c(C#N)c3c2=O)c2scc(C(=O)O)c2n1` [compound 1215], the IC50 by setting is: under setting [1], less than 50 nM; under setting [3], 25.7 nM.
